# Assay results from paper PMC11882969 (Nature Communications, 2025).
# “And” between values parts separate entries of the source, which are not always exact repeats. Equal entries are not always repeated. Where two headings read alike, the source gives them in different places.
# What was measured:
# [1] = biological target: panel of 320 non-olfactory GPCRs (Homo sapiens, UniProt P28336); type: cell-based
# [2] = biological target: panel of 320 non-olfactory GPCRs (Homo sapiens, UniProt Q14831); type: cell-based
# [3] = biological target: panel of 320 non-olfactory GPCRs (Homo sapiens, UniProt Q8NFN8); type: cell-based
# Sequence of panel of 320 non-olfactory GPCRs (Homo sapiens, UniProt Q8NFN8) (Q8NFN8 whole entry): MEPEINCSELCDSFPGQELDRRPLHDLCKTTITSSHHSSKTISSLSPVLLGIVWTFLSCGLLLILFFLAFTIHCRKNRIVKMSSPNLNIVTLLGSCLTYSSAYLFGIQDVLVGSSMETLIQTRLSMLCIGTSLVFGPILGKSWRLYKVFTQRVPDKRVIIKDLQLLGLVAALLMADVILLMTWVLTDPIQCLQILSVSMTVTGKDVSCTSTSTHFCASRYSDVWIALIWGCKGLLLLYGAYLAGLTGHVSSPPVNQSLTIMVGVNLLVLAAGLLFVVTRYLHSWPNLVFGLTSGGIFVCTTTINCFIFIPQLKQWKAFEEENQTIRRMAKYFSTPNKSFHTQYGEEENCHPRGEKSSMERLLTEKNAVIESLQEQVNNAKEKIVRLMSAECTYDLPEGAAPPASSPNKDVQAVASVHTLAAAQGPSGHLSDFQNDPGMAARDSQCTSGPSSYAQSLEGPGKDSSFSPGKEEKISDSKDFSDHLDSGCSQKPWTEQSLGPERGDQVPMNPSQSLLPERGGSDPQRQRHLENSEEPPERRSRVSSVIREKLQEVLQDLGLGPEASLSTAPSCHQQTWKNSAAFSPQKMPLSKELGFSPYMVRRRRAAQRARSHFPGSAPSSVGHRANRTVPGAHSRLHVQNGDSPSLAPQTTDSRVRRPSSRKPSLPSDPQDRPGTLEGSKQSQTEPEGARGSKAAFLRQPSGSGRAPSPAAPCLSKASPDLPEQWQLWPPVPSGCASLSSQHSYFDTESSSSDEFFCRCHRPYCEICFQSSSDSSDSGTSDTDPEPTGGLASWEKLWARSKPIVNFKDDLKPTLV
# [4] = biological target: panel of 320 non-olfactory GPCRs (Homo sapiens, UniProt Q9Y5N1); type: cell-based
# Sequence of panel of 320 non-olfactory GPCRs (Homo sapiens, UniProt Q9Y5N1) (Q9Y5N1 whole entry): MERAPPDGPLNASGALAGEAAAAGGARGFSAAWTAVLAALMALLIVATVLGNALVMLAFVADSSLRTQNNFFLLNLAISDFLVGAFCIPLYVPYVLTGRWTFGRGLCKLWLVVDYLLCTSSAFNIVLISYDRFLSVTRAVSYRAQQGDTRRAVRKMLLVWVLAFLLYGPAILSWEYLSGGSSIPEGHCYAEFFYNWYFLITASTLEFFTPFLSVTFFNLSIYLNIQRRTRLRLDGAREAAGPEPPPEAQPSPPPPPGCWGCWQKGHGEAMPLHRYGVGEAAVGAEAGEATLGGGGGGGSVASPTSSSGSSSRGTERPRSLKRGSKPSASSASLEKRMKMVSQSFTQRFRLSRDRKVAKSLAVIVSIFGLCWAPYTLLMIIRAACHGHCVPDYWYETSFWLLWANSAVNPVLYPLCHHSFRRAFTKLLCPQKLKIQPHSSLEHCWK
# hCB1 [5] = biological target: T1, hCB1 (Homo sapiens, UniProt P21554); assay: DiscoverX PathHunter β-arrestin-2 recruitment; type: cell-based;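 note: CHO-K1 cells expressing hCB1, agonist mode, compound exposure with 1% vehicle, chemiluminescence read-out of the β-arrestin-2 recruitment signal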
# T1 sequence (P21554 whole entry): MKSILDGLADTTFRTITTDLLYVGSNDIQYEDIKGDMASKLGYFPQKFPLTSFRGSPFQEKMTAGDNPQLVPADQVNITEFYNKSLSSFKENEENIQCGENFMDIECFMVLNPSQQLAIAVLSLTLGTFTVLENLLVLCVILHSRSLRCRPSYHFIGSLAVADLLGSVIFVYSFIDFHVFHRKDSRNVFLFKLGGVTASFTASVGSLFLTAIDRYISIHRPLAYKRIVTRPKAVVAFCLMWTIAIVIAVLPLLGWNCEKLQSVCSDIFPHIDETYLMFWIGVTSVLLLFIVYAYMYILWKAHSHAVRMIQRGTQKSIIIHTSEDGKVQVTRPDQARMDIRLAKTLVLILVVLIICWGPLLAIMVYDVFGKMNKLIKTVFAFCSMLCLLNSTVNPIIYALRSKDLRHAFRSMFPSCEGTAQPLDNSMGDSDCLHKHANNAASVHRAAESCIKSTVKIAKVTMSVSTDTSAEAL
# hCB1 [6] = biological target: T1, hCB1; assay: Cerep HTRF cAMP inhibition assay, hCB1 CHO-K1; type: cell-based; design: host or cells: HEK293SL cells, transient PEI transfection
# Procedure: (§1) The hCB1/2 CHO-K1 cells (ATCC: CCL-61) are suspended in HBSS buffer (Invitrogen) complemented with 20 mM HEPES (pH 7.4), then distributed in microplates at a density of 5.103 cells/well in the presence of either of the following: HBSS (basal control), the reference agonist (stimulated control) or the test compounds. […] Following 30 min incubation at 37 °C, the cells are lysed, and the fluorescence acceptor (D2-labeled cAMP) and fluorescence donor (anti-cAMP antibody labeled with europium cryptate) are added. […] Each measurement was done in triplicate.
# hCB2 = hCB2 (Homo sapiens, UniProt P34972); assay: Cerep HTRF cAMP inhibition assay, hCB2 CHO-K1; type: cell-based; design: host or cells: HEK293SL cells, transient PEI transfection; conditions: for functional response, concentration-response point (FigS7d): replicate columns;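 for all read-outs here: compounds incubated 30 min at 37 °C with hCB2 CHO-K1 cells, cAMP detected by HTRF, HBSS as basal and reference agonist as stimulated control, run in triplicate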
# Sequence of hCB2 (P34972 whole entry): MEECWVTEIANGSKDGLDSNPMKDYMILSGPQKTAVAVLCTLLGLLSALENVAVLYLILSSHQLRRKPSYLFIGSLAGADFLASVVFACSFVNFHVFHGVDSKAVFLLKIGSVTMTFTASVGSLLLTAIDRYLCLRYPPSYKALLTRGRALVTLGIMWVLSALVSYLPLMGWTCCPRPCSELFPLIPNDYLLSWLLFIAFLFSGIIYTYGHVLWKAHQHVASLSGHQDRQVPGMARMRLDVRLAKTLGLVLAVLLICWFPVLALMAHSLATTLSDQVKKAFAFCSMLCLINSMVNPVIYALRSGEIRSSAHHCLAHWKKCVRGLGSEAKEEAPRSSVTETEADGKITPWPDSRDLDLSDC
# Procedure: as §1
# [7] = biological target: panel of 320 non-olfactory GPCRs (Homo sapiens, UniProt O14626); type: cell-based
# Sequence of panel of 320 non-olfactory GPCRs (Homo sapiens, UniProt O14626) (O14626 whole entry): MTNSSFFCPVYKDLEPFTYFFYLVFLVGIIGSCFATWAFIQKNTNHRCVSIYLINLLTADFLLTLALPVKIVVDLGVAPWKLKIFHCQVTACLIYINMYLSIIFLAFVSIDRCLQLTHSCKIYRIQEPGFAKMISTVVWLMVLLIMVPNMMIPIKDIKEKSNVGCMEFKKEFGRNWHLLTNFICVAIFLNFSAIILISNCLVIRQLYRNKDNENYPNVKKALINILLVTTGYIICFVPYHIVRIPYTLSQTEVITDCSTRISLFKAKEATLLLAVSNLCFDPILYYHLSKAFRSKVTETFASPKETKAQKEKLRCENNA
# [8] = biological target: panel of 320 non-olfactory GPCRs (Homo sapiens, UniProt O14842); type: cell-based
# Sequence of panel of 320 non-olfactory GPCRs (Homo sapiens, UniProt O14842) (O14842 whole entry): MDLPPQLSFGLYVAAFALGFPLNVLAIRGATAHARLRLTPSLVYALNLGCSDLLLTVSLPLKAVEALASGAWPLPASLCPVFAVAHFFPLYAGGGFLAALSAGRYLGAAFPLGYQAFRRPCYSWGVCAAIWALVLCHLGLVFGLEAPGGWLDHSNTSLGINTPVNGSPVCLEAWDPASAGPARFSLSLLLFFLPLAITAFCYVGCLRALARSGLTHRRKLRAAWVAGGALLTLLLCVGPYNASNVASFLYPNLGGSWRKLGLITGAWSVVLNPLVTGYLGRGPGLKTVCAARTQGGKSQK
# [9] = biological target: panel of 320 non-olfactory GPCRs (Homo sapiens, UniProt P18825); type: cell-based
# Sequence of panel of 320 non-olfactory GPCRs (Homo sapiens, UniProt P18825) (P18825 whole entry): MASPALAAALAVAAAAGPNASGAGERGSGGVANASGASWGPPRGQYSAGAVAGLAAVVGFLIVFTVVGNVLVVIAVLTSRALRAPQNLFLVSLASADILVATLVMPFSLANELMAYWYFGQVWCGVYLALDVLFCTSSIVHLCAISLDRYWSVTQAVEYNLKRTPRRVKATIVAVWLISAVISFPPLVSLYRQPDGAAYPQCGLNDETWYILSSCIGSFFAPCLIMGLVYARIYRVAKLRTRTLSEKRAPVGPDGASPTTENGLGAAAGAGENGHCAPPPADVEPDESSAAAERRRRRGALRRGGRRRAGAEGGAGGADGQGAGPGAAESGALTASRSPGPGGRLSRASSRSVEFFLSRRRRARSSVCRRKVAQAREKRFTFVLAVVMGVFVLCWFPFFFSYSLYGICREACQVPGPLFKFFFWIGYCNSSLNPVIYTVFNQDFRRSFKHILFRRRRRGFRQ
# [10] = biological target: panel of 320 non-olfactory GPCRs (Homo sapiens, UniProt Q7Z601); type: cell-based
# [11] = biological target: panel of 320 non-olfactory GPCRs (Homo sapiens, UniProt Q8IZ08); type: cell-based
# Sequence of panel of 320 non-olfactory GPCRs (Homo sapiens, UniProt Q8IZ08) (Q8IZ08 whole entry): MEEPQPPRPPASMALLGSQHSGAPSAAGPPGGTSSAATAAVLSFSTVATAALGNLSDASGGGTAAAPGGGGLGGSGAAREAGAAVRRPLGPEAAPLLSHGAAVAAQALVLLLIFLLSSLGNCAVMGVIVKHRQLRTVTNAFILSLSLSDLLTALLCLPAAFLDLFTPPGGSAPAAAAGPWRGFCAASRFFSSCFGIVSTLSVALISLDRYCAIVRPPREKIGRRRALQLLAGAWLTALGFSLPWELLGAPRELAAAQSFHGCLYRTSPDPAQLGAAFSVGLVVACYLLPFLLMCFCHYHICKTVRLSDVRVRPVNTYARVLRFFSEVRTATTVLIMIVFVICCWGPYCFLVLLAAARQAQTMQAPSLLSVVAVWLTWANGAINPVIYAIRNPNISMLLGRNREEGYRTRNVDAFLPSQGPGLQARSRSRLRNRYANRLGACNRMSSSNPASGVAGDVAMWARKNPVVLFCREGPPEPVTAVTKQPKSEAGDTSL
# [12] = biological target: panel of 320 non-olfactory GPCRs (Homo sapiens, UniProt Q8IZF7); type: cell-based
# Sequence of panel of 320 non-olfactory GPCRs (Homo sapiens, UniProt Q8IZF7) (Q8IZF7 whole entry): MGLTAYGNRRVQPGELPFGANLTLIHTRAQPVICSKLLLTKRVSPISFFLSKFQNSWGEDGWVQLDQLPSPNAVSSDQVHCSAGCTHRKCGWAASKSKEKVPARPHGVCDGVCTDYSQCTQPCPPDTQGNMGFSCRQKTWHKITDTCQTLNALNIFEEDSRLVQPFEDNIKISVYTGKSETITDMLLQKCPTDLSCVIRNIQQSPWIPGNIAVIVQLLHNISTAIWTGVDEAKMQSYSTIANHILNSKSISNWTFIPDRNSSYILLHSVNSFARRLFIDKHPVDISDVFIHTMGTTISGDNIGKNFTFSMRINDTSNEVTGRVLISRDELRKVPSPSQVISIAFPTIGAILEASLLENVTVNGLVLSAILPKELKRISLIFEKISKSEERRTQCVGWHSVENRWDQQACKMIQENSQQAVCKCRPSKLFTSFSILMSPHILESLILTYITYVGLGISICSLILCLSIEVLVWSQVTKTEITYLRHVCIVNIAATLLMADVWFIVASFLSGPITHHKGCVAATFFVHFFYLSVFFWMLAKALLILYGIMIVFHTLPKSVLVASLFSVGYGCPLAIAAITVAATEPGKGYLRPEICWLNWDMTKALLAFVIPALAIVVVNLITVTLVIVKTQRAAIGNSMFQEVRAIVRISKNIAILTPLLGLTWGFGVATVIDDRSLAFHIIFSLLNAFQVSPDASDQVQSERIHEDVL
# [13] = biological target: panel of 320 non-olfactory GPCRs (Homo sapiens, UniProt Q96P69); type: cell-based
# mice [14] = assay: CFA inflammatory pain model; type: in vivo, mouse
# Procedure: The CFA model of chronic inflammation was induced as described previously. Briefly, CFA (Sigma) was diluted 1:1 with saline and vortexed for 30 min. When fully suspended, we injected 20 μL of CFA into one hindpaw. Heat thresholds were measured before the injection (baseline) and 3 days after the injection using the Hargreaves test.
# mice [15] = assay: Conditioned place preference; type: in vivo, mouse
# Procedure: Briefly, mice were first habituated to the test apparatus, twice, and their preference for each chamber recorded for 30 min (Pretest). Two conditioning days followed in which mice received the vehicle control or the compound, and 30 min later restricted for 30 min in the preferred or non-preferred chamber, respectively. On day 5 (Test day), mice were allowed to roam freely between the 3 chambers of the apparatus and their preference for each chamber recorded for 30 min. To calculate the CPP score, we subtracted the time spent in each chamber of the box on the Pretest day from that of the Test day (CPP score = Test - Pretest).
# mice [16] = assay: Body temperature by telemetric probe; type: in vivo, mouse; conditions: 0.2 mg/kg; for Body temperature (pre-injection = 100): individual animals, sheet Figure7a
# Procedure: Body temperature (BT) was measured using a telemetric probe device (HD-X10; Data Science International). Briefly, under anesthesia, the probe device was placed in the mouse abdomen and a subcutaneous tunnel was created from the neck to the abdominal skin, through which a catheter (connected to the probe) was pulled and then inserted into the left carotid artery. Three weeks later, the implanted mice were singly housed in a cage that was placed on top of the DSI receiver (for probe signal detection). We monitored BT continuously over 2 h, in the following manner: 30 min (for baseline), 30 min after injection of the vehicle and then for 1 h after injection of the compound. Data were acquired using the Ponemah Telemetry acquisition software (DSI) and percent changes were presented relative to each mouse’s baseline.
# [17] = relative to 100 at 0 min
# Procedure: (§2) The reactions were stopped by adding 240 μL 90% acetonitrile containing internal standard with subsequent plasma proteins sedimentation by centrifuging at 5796 g for 5 min. Supernatants were analyzed by the HPLC system coupled with a tandem mass spectrometer. The percentage of the test compounds remaining after incubation in plasma and their half-lives (T1/2) were calculated.
# physchem = conditions: phosphate-buffered saline, 25 °C, pH 7.4, aqueous buffer, kinetic from dmso stock
# in vitro [18] = conditions: mouse, pH 7.4
# Procedure: Compounds were added to one chamber and the same volume of PBS buffer pH 7.4 to the other chamber. A standard solution was created by mixing an aliquot of spiked plasma with blank buffer without dialysis. […] The stability samples were immediately diluted with acetonitrile and stored at 4 °C until LC-MS/MS analysis. All samples were diluted 5-fold with 90% acetonitrile with internal standard with subsequent plasma proteins sedimentation by centrifuging at 5,796 g for 5 min. Supernatants were analyzed using HPLC system coupled with tandem mass spectrometer. The percentage of plasma protein-bound compound, recovery and stability were calculated using following equations:7 ProteinBinding=1−arearatioinbuffer/arearatioinplasma×100 8 Recovery=arearatioinbuffer+arearatioinplasma/arearatioinstabilitysample×100 9 Stability=arearatioinrecoverysample/arearatioinstabilitysample×100
# in vitro [19] = conditions: mouse, plasma
# Procedure: as §2
# P-gp (human MDR1) = assay: in vitro; conditions: dog, MDCK-MDR1, pH 7.4
# Sequence of panel of 320 non-olfactory GPCRs (Homo sapiens, UniProt P28336) (P28336 whole entry): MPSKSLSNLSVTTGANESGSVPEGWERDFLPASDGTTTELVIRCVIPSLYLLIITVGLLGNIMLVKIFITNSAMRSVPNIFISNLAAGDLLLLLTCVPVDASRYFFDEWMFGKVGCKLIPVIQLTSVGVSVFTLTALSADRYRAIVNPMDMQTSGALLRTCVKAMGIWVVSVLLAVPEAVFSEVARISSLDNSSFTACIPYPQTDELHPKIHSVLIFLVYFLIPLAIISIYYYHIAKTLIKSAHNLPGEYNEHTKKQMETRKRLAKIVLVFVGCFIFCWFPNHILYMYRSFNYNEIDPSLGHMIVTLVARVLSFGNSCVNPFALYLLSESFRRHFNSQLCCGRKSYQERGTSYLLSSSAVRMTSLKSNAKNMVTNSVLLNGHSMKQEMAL
smiles,measurement,setting,value
Cc1cc(C(=O)NC(C)(c2ccco2)c2ccco2)nn1-c1cccc(C(F)(F)F)c1 [‘4936],Fold of Basal RLU,[1],2.2 and 1.8 and 1.2 and 1.3
same,Fold of Basal RLU,[2],0.5 and 1 and 0.9 and 0.6
same,Fold of Basal RLU,[3],0.8 and 1.2 and 0.6
same,Fold of Basal RLU,[4],1 and 0.5 and 0.6
COC(=O)C(C)(NC(=O)c1cc(C)n(-c2cccc(C(F)(F)F)c2)n1)c1cccs1 (stereo not drawn) [‘4042],DiscoverX ß-arrestin recruitment pEC50,hCB1 [5],8.7 [8.3 – 9.6]
same,response at log[M] -5 (FigS4f),"hCB1 [5]; log[M] = -5, individual replicates",61.1792 and 63.739
same,response at log[M] -5.47712 (FigS4f),"hCB1 [5]; log[M] = -5.47712, individual replicates",59.4535 and 60.8053
same,response at log[M] -5.95424 (FigS4f),"hCB1 [5]; log[M] = -5.95424, individual replicates",62.531 and 63.2501
same,response at log[M] -6.43136 (FigS4f),"hCB1 [5]; log[M] = -6.43136, individual replicates",63.3939 and 54.9092
same,response at log[M] -6.90849 (FigS4f),"hCB1 [5]; log[M] = -6.90849, individual replicates",60.9779 and 60
same,response at log[M] -7.38561 (FigS4f),"hCB1 [5]; log[M] = -7.38561, individual replicates",55.1393 and 55.8296
same,response at log[M] -7.86273 (FigS4f),"hCB1 [5]; log[M] = -7.86273, individual replicates",45.8781 and 43.2321
same,response at log[M] -8.33985 (FigS4f),"hCB1 [5]; log[M] = -8.33985, individual replicates",34.3448 and 36.6457
same,response at log[M] -8.81697 (FigS4f),"hCB1 [5]; log[M] = -8.81697, individual replicates",21.5459 and 25.2274
same,response at log[M] -9.29409 (FigS4f),"hCB1 [5]; log[M] = -9.29409, individual replicates",9.61 and 9.437
same,EC50,hCB1 [5]; read-out: DiscoverX ß-arrestin recruitment EC50,2.3 nM
same,Emax,hCB1 [5]; read-out: DiscoverX ß-arrestin recruitment Emax,71%
same,Emax,hCB1 [6]; CHO-K1,96%
same,Cerep cAMP pEC50,hCB1 [6]; hCB1,11.1
same,Emax,"hCB2; CHO-K1, hCB2",72%
same,"functional response, concentration-response point (FigS7d)",hCB2; Concentration [M] 1e-12,9.2 and 15.9 and 20.5
same,"functional response, concentration-response point (FigS7d)",hCB2; Concentration [M] 1e-11,54.5 and 33.7 and 39.7
same,"functional response, concentration-response point (FigS7d)",hCB2; Concentration [M] 1e-10,72.4 and 68.7 and 74.5
same,"functional response, concentration-response point (FigS7d)",hCB2; Concentration [M] 1e-9,87.6 and 76.3 and 78.1
same,"functional response, concentration-response point (FigS7d)",hCB2; Concentration [M] 1e-8,74.4 and 84.9 and 81.3
same,"functional response, concentration-response point (FigS7d)",hCB2; Concentration [M] 1e-7,79.5 and 79.9 and 79.2
same,"functional response, concentration-response point (FigS7d)",hCB2; Concentration [M] 1e-6,80.1 and 76.3 and 83.8
same,Cerep cAMP pEC50,hCB2; hCB2,10.95 [10.7 – 11.6]
same,EC50,hCB2; hCB2,0.011 nM
COC(=O)[C@@](C)(NC(=O)c1cc(C)n(-c2cccc(C(F)(F)F)c2)n1)c1cccs1 [‘1350],Fold of Basal RLU,[7],1.4 and 1 and 1.5 and 0.8
same,Fold of Basal RLU,[8],1.4 and 0.7 and 1.1 and 0.8
same,Fold of Basal RLU,[9],0.7 and 1.2 and 0.6
same,Fold of Basal RLU,[10],1.2 and 0.9 and 1
same,Fold of Basal RLU,[11],1.2 and 0.9 and 1.6
same,Fold of Basal RLU,[12],0.8 and 0.9 and 0.7 and 0.5
same,Fold of Basal RLU,[13],0.8 and 1 and 1.1 and 1.4
same,effect on paw withdrawal latency after CFA,mice [14]; 0.2 mg/kg i.p.,increasing paw withdrawal latencies to well-above pre-CFA baseline thresholds
same,"CFA inflammatory pain response normalised to baseline (Figure5a), individual animals","mice [14]; 0.2 mg/kg, CFA-treated mice",134.669 and 178.501 and 55.3352 and 183.627 and 40.7039 and 122.724 and 119
same,Individual animal scores (FigS11e),"mice [15]; 0.2 mg/kg, test not printed on the sheet",289 and 48 and 256 and -101 and 11 and -145 and -65 and -179
same,conditioned place preference,mice [15]; drug-paired vs vehicle-paired chamber,does not induce preference
same,hypothermia,mice [16]; vs baseline and vehicle,"increased hypothermia compared to CP-55,940"
same,Body temperature (pre-injection = 100),mice [16]; time 10,97.5 and 99.4 (2×)
same,Body temperature (pre-injection = 100),mice [16]; time 20,90.5 and 93.9 and 97
same,Body temperature (pre-injection = 100),mice [16]; time 30,83.8 and 88.4 and 92.4
same,Body temperature (pre-injection = 100),mice [16]; time 40,79.1 and 83.4 and 87.4
same,Body temperature (pre-injection = 100),mice [16]; time 50,78.7 and 80.2 and 84.2
same,Body temperature (pre-injection = 100),mice [16]; time 60,79.9 and 78.4 and 83.6
same,Body temperature (pre-injection = 100),mice [16]; time 70,81.4 and 78.1 and 83.5
same,Body temperature (pre-injection = 100),mice [16]; time 80,82.4 and 78.5 and 83.9
same,Body temperature (pre-injection = 100),mice [16]; time 90,82.1 and 79.5 and 83.5
same,"Stability time course, Mean (FigS10e)",[17]; Time 0 min,100
same,"Stability time course, Mean (FigS10e)",[17]; Time 20 min,84.0951
same,"Stability time course, Mean (FigS10e)",[17]; Time 40 min,66.362
same,"Stability time course, Mean (FigS10e)",[17]; Time 60 min,47.7148
same,"Stability time course, Mean (FigS10e)",[17]; Time 120 min,13.638
same,solubility at 2 h,physchem,23 µM
same,"recovery at 5 h, 1 μM",in vitro [18],107%
same,half-life at 1 µM,in vitro [19],41 min
same,"remaining at 20 min, 1 µM",in vitro [19],84%
same,"remaining at 40 min, 1 µM",in vitro [19],66%
same,"remaining at 1 h, 1 µM",in vitro [19],48%
same,"remaining at 2 h, 1 µM",in vitro [19],14%
same,"efflux ratio at 90 min, 10 μM",P-gp (human MDR1),1.3
